# Values quoted from earlier work in patent US6046167A, “Peptide YY analogs” (University of Cincinnati, priority 1998, dated 2000).
# Test system: rat small intestine
# Details: voltage clamped preparations of rat small intestine; literature comparison
substance,measurement,value
PYY: 36-residue peptide amide isolated originally from porcine intestine [Peptide YY],antisecretory potency,greater antisecretory potency than NPY
